Two compounds from patent publication US20060165823A1, “Topical delivery agents and methods for making and using therm” (priority 2003, published 2006) can be followed below.

This data set concerns hair follicles and sebaceous glands of the dorsal skin. The experiment in a line: Delivery of Nile Red fluorescent dye into hair follicles and sebaceous glands by delivery agents. On the set-up: species or system Sprague Dawley rat; Fluorescence intensity: key to the marks not given beside the values. Particulars: rat, in vivo. The text has this: Mixtures of Nile Red fluorescent dye, were from Sigma Chemical Co., St. […] All mixtures were filtered through a 0.2 micron Millipore filter, available from Millipore Corp., Bedford, Mass., to remove any undissolved Nile Red dye. […] Before the application of formulations, the hair of the rats was gently clipped with an electric clipper on their dorsal areas. […] The amount of Nile Red delivered is evidenced by the intensity of the orange-red fluorescence depicted in the photomicrographs. […] Orange-red fluorescence due to Nile Red dye on the skin surface (stratum corneum) was not evaluated.

Take `C[S+](C)[O-]` [DMSO, Dimethyl Sulfoxide, reference compound]: the Fluorescence intensity result is given as “+++”.
Jojoba Oil: the Fluorescence intensity result is reported as “++++”; the “Penetration of the skin and distribution in the pilosebaceous unit” value was “can penetrate the skin through the opening of the hair follicle and distribute itself throughout the hair shaft and sebaceous gland”.
